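1) Cells in 96-well plates. 2) Compound, 48 h, 5 concentrations. 3) Linear interpolation between surrounding doses. 4) Unreached endpoint = highest concentration. At the GI50, growth is halved. TGI marks complete inhibition of growth.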
Key:
Assay in all cases: NCI-60 cell line screen, 48 h
[1] = system: NCI-H460 lung
[2] = system: SW-620 colon
[3] = system: DU-145 prostate
[4] = system: LOX IMVI melanoma
[5] = system: HT29 colon
[6] = system: OVCAR-5 ovarian
[7] = system: T-47D breast
[8] = system: SF-268 CNS
[9] = system: OVCAR-8 ovarian
[10] = system: HS 578T breast
[11] = system: A498 renal
[12] = system: HOP-62 NSCLC
[13] = system: SNB-19 CNS
[14] = system: NCI-H23 lung
[15] = system: NCI-H522 lung
[16] = system: HCT-15 colon
[17] = system: CAKI-1 renal
[18] = system: MDA-MB-231 breast
[19] = system: MDA-MB-435
[20] = system: CCRF-CEM leukemia
[21] = system: MOLT-4 leukemia
[22] = system: HL-60(TB) leukemia
[23] = system: MCF7 breast
[24] = system: UO-31 renal
[25] = system: SF-295 CNS
[26] = system: K-562 leukemia
[27] = system: M14 melanoma
[28] = system: PC-3 prostate
[29] = system: HCC-2998 colon
[30] = system: A549 NSCLC
[31] = system: SK-MEL-2 melanoma
[32] = system: TK-10 renal
[33] = system: UACC-62 melanoma
[34] = system: UACC-257 melanoma
[35] = system: IGROV1 ovarian
[36] = system: SNB-75 CNS
[37] = system: NCI-H226 lung
[38] = system: RXF 393 renal
[39] = system: SF-539 CNS
[40] = system: HOP-92 NSCLC
[41] = system: 786-0 renal
[42] = system: ACHN renal
[43] = system: BT-549 breast
[44] = system: NCI/ADR-RES ovarian
[45] = system: OVCAR-4 ovarian
[46] = system: SK-OV-3 ovarian
[47] = system: KM12 colon
[48] = system: SN12C renal
[49] = system: OVCAR-3 ovarian
[50] = system: MALME-3M melanoma
[51] = system: RPMI-8226 leukemia
[52] = system: SK-MEL-5 melanoma
[53] = system: SK-MEL-28 melanoma
[54] = system: SR leukemia
[55] = system: COLO 205 colon
[56] = system: U251 CNS
[57] = system: HCT-116 colon

**Q.** With `CN(C)c1ccc(N=C2C=CC(=O)c3ccccc32)cc1` as the compound, how does the GI50 [1] read?
**A.** 1.98 µM

**Q.** What about the TGI [1] of the same compound?
**A.** 4.86 µM

**Q.** What about the GI50 [2] of the same compound?
**A.** 1.68 µM

**Q.** And the TGI [2]?
**A.** 3.42 µM

**Q.** And the GI50 [3]?
**A.** 1.74 µM

**Q.** And the TGI [3]?
**A.** 3.13 µM

**Q.** What about the GI50 [4] of the same compound?
**A.** 1.78 µM

**Q.** And the TGI [4]?
**A.** 4.13 µM

**Q.** And the GI50 [5]?
**A.** 3.62 µM

**Q.** What about the TGI [5] of the same compound?
**A.** 12.2 µM

**Q.** And the GI50 [6]?
**A.** 12.6 µM

**Q.** And the TGI [6]?
**A.** 28.8 µM

**Q.** What about the GI50 [7] of the same compound?
**A.** 2.27 µM

**Q.** What about the TGI [7] of the same compound?
**A.** 6.01 µM

**Q.** And the GI50 [8]?
**A.** 2.92 µM

**Q.** What about the TGI [8] of the same compound?
**A.** 13.1 µM

**Q.** And the GI50 [9]?
**A.** 3.71 µM

**Q.** What about the TGI [9] of the same compound?
**A.** 18.2 µM

**Q.** And the GI50 [10]?
**A.** 1.97 µM

**Q.** And the TGI [10]?
**A.** 6.09 µM

**Q.** And the GI50 [11]?
**A.** 12 µM

**Q.** What about the TGI [11] of the same compound?
**A.** 25.2 µM

**Q.** What about the GI50 [12] of the same compound?
**A.** 2.19 µM

**Q.** What about the TGI [12] of the same compound?
**A.** 6.62 µM

**Q.** What about the GI50 [13] of the same compound?
**A.** 3.42 µM

**Q.** What about the TGI [13] of the same compound?
**A.** 13.9 µM

**Q.** And the GI50 [14]?
**A.** 2.41 µM

**Q.** And the TGI [14]?
**A.** 8.04 µM

**Q.** What about the GI50 [15] of the same compound?
**A.** 1.97 µM

**Q.** What about the TGI [15] of the same compound?
**A.** 4.51 µM

**Q.** What about the GI50 [16] of the same compound?
**A.** 2.36 µM

**Q.** And the TGI [16]?
**A.** 17.7 µM

**Q.** What about the GI50 [17] of the same compound?
**A.** 3.58 µM

**Q.** What about the TGI [17] of the same compound?
**A.** 16.3 µM

**Q.** What about the GI50 [18] of the same compound?
**A.** 0.899 µM

**Q.** And the TGI [18]?
**A.** 12.7 µM

**Q.** And the GI50 [19]?
**A.** 1.85 µM

**Q.** What about the TGI [19] of the same compound?
**A.** 3.58 µM

**Q.** What about the GI50 [20] of the same compound?
**A.** 2.13 µM

**Q.** What about the TGI [20] of the same compound?
**A.** 6.17 µM

**Q.** And the GI50 [21]?
**A.** 2.45 µM

**Q.** And the TGI [21]?
**A.** 6.21 µM

**Q.** What about the GI50 [22] of the same compound?
**A.** 2.15 µM

**Q.** And the TGI [22]?
**A.** 4.52 µM

**Q.** What about the GI50 [23] of the same compound?
**A.** 1.87 µM

**Q.** And the TGI [23]?
**A.** 7.46 µM

**Q.** What about the GI50 [24] of the same compound?
**A.** 2.28 µM

**Q.** What about the TGI [24] of the same compound?
**A.** 16.6 µM

**Q.** What about the GI50 [25] of the same compound?
**A.** 1.68 µM

**Q.** And the TGI [25]?
**A.** 3.66 µM

**Q.** What about the GI50 [26] of the same compound?
**A.** 2 µM

**Q.** What about the TGI [26] of the same compound?
**A.** 4.75 µM

**Q.** What about the GI50 [27] of the same compound?
**A.** 1.79 µM

**Q.** And the TGI [27]?
**A.** 3.61 µM

**Q.** What about the GI50 [28] of the same compound?
**A.** 2.66 µM

**Q.** What about the TGI [28] of the same compound?
**A.** 19.8 µM

**Q.** What about the GI50 [29] of the same compound?
**A.** 5.05 µM

**Q.** What about the TGI [29] of the same compound?
**A.** 16.7 µM

**Q.** And the GI50 [30]?
**A.** 1.82 µM

**Q.** And the TGI [30]?
**A.** 3.89 µM

**Q.** What about the GI50 [31] of the same compound?
**A.** 3.5 µM

**Q.** What about the TGI [31] of the same compound?
**A.** 11 µM

**Q.** What about the GI50 [32] of the same compound?
**A.** 17 µM

**Q.** What about the TGI [32] of the same compound?
**A.** 31 µM

**Q.** What about the GI50 [33] of the same compound?
**A.** 1.71 µM

**Q.** What about the TGI [33] of the same compound?
**A.** 3.24 µM

**Q.** What about the GI50 [34] of the same compound?
**A.** 2.21 µM

**Q.** And the TGI [34]?
**A.** 5.45 µM

**Q.** What about the GI50 [35] of the same compound?
**A.** 2.76 µM

**Q.** And the TGI [35]?
**A.** 9.28 µM

**Q.** What about the GI50 [36] of the same compound?
**A.** 1.8 µM

**Q.** And the TGI [36]?
**A.** 4.86 µM

**Q.** And the GI50 [37]?
**A.** 18.2 µM

**Q.** What about the TGI [37] of the same compound?
**A.** 54 µM

**Q.** And the GI50 [38]?
**A.** 3.2 µM

**Q.** And the TGI [38]?
**A.** 14.5 µM

**Q.** And the GI50 [39]?
**A.** 3.11 µM

**Q.** And the TGI [39]?
**A.** 11.4 µM

**Q.** What about the GI50 [40] of the same compound?
**A.** 5.06 µM

**Q.** And the TGI [40]?
**A.** 18.7 µM

**Q.** And the GI50 [41]?
**A.** 15.2 µM

**Q.** What about the TGI [41] of the same compound?
**A.** 32.5 µM

**Q.** And the GI50 [42]?
**A.** 4.1 µM

**Q.** And the TGI [42]?
**A.** 18.4 µM

**Q.** What about the GI50 [43] of the same compound?
**A.** 7.49 µM

**Q.** What about the TGI [43] of the same compound?
**A.** 20.5 µM

**Q.** What about the GI50 [44] of the same compound?
**A.** 3.95 µM

**Q.** And the TGI [44]?
**A.** 72.6 µM

**Q.** What about the GI50 [45] of the same compound?
**A.** 2.02 µM

**Q.** And the TGI [45]?
**A.** 10.4 µM

**Q.** And the GI50 [46]?
**A.** 17 µM

**Q.** And the TGI [46]?
**A.** > 100 µM

**Q.** And the GI50 [47]?
**A.** 2.69 µM

**Q.** And the TGI [47]?
**A.** 10.2 µM

**Q.** And the GI50 [48]?
**A.** 2.54 µM

**Q.** What about the TGI [48] of the same compound?
**A.** 9.28 µM

**Q.** And the GI50 [49]?
**A.** 1.28 µM

**Q.** What about the TGI [49] of the same compound?
**A.** 3.08 µM

**Q.** What about the GI50 [50] of the same compound?
**A.** 1.6 µM

**Q.** And the TGI [50]?
**A.** 3.75 µM

**Q.** And the GI50 [51]?
**A.** 2.92 µM

**Q.** What about the TGI [51] of the same compound?
**A.** 19.7 µM

**Q.** What about the GI50 [52] of the same compound?
**A.** 1.34 µM

**Q.** And the TGI [52]?
**A.** 2.72 µM

**Q.** And the GI50 [53]?
**A.** 2.38 µM

**Q.** What about the TGI [53] of the same compound?
**A.** 5.73 µM

**Q.** And the GI50 [54]?
**A.** 2.86 µM

**Q.** What about the TGI [54] of the same compound?
**A.** 14.1 µM

**Q.** And the GI50 [55]?
**A.** 2.06 µM

**Q.** And the TGI [55]?
**A.** 4.15 µM

**Q.** What about the GI50 [56] of the same compound?
**A.** 2.47 µM

**Q.** What about the TGI [56] of the same compound?
**A.** 7.9 µM

**Q.** And the GI50 [57]?
**A.** 2.88 µM

**Q.** What about the TGI [57] of the same compound?
**A.** 13.3 µM

— PubChem BioAssay (NCI)
